Test system: full thickness porcine skin
Assay: Phage display library (PDL) screening for skin penetrating peptides on porcine skin in Franz diffusion cells
Type: in vitro ADME
Settings: for Frequency (how many times a same peptide sequence was identified when 31 peptides were randomly picked from the receptor compartment): after third round of screening, phage-displayed 12-mer peptides, four different skin samples (n = 4), receptor collected after 24 hours
Procedure: Phage Display Library (PDL) screening was performed on full thickness porcine skin using Franz diffusion cells. Porcine skin was sandwiched in between the donor and receptor compartments in such a way that SC faced the donor compartment. Phosphate-buffered saline (PBS: 10 mM), pH 7.4 (12 ml) was added in the receptor compartment. The skin was equilibrated at 37° C. for 0.5-1 hours before the experiment. The skin integrity was determined by measuring the skin conductivity.
To perform PDL screening, 1×10^11 plaque forming units (pfu) of phages from a 12-mer phage display peptide library (PDL) were added into the donor compartment and covered with parafilm to maintain the occlusive condition. Phage particles which permeated across the skin were collected from the receptor chamber after 24 hours and amplified using a standard M13 phage amplification protocol. Amplified pool of phages (1×10^11 pfu) was loaded again in the donor chamber for another round of screening. In this way, three rounds of screenings were performed.
After third round of screening, DNAs were isolated from phages, which crossed the skin consistently in higher numbers, and sent for DNA sequencing to analyze the peptide present on their surface. After three round of screening, seven (7) peptide sequences that consistently crossed the skin were identified (see Table 3). […] The identified peptides, SEQ ID NOs: 1-7, are referred to herein as skin penetrating peptides (SPPs).

With “AYNAGSILENNF [YNAGSILENNF (SEQ ID NO: 5), 12-mer skin penetrating peptide (SPP) identified by phage display library screening on porcine skin]” the “Frequency (how many times a same peptide sequence was identified when 31 peptides were randomly picked from the receptor compartment)” value (shortened to “Frequency”) was 2 out of 31.

With “GYGFSNTNSFFV [GYGFSNTNSFFV (SEQ ID NO: 3), 12-mer skin penetrating peptide (SPP) identified by phage display library screening on porcine skin]” the “Frequency” value was 3 out of 31.

“HIITDPNMAEYL [HIITDPNMAEYL (SEQ ID NO: 1), 12-mer skin penetrating peptide (SPP) identified by phage display library screening on porcine skin]” was tested, and the “Frequency” value was 8 out of 31 and the “Crossing of the skin by phage displaying the peptide (in words)” value (after three rounds of screening, full thickness porcine skin) was “crossed the skin at very high frequency”.

“LVPDRMTAISRA [LVPDRMTAISRA (SEQ ID NO: 6), 12-mer skin penetrating peptide (SPP) identified by phage display library screening on porcine skin]” was tested, and the “Frequency” value was 2 out of 31.

For “NSLRNYDFLITM [NSLRNYDFLITM (SEQ ID NO: 7), 12-mer skin penetrating peptide (SPP) identified by phage display library screening on porcine skin]”, the “Frequency” value was 2 out of 31.

“SHMQNRPASDEH [SHMQNRPASDEH (SEQ ID NO: 4), 12-mer skin penetrating peptide (SPP) identified by phage display library screening on porcine skin]” was tested, and the “Frequency” value was 3 out of 31.

With “SYTQRADSTTLH [SYTQRADSTTLH (SEQ ID NO: 2), 12-mer skin penetrating peptide (SPP) identified by phage display library screening on porcine skin]” the “Frequency” value was 3 out of 31.
